# Measured values reported in patent EP1090634A1, “Agents for reducing cholesterol and lipid uptake” (Hauser, Helmut, priority 1999, dated 2001).
# Test system: micellar dispersion consisting of 5 mM taurocholate, 0.6 mM oleic acid and 0.1 mM radiolabeled cholesterol
# Assay: In vitro precipitation of cholesterol-carrying bile salt micelles (radioactivity in supernatant after centrifugation; turbidity at 500 nm)
# Conditions: for precipitation: at the amount calculated for charge equivalence
# Description: In order to determine the efficiency of specific cations, an in vitro test was used in which micelles comprising radio labeled cholesterol (cholesterol and micelles were produced according to known methods, see below) were generated. To a predetermined amount of such micelles, the respective precipitant was added in portions, and the precipitation formed upon addition of specific amounts of precipitant measured by two methods, namely by light scattering and by determination of the radioactivity in the supernatant after centrifugation.
# A micellar dispersion consisting of 5 mM taurocholate, 0.6 mM oleic acid and 0.1 mM radiolabeled cholesterol was prepared as described before (Schulthess et al., J. Lipid Res. 37, 2405-19 (1996)) using Mg- and Ca-free phosphate-buffered saline (PBS) from Life Technologies, Basel, Switzerland. This stock solution was diluted by adding various amounts of precipitant in PBS, and PBS was added to a final volume of 1 ml. The mixture was shortly vortexed and incubated at room temperature for about 5 min before measuring its optical density (turbidity) at 500 nm. Precipitation (in %) was determined as follows: an aliquot of 200 µl of the incubation mixture was centrifuged for 3 min. at 100'000 g and the radioactivity of 100 µl supernatant was determined in a liquid scintillation counter. The radioactivity of 100 µl of the original mixture was also determined without centrifugation. The precipitation was determined as precipitation (%) = 100 [1-([…])] [formula] • A = radioactivity in supernatant without centrifugation • B = radioactivity in supernatant after centrifugation As a control: the precipitation (%) is determined in the absence of precipitant and a value of precipitation (%) = 2 ± 1 is obtained.
# [1] = charge ratio (taurocholate/precipitant) 0.1, PBS
# [2] = charge ratio (taurocholate/precipitant) 0.165, PBS
# [3] = charge ratio (taurocholate/precipitant) 0.5, PBS
# [4] = charge ratio (taurocholate/precipitant) 1, PBS
# [5] = charge ratio (taurocholate/precipitant) 3, PBS
# [6] = charge ratio (taurocholate/precipitant) 2, PBS
# [7] = charge ratio (taurocholate/precipitant) 0.25, PBS
# [8] = charge ratio (taurocholate/precipitant) 0.2, in PBS
# [9] = charge ratio (taurocholate/precipitant) 1, in 50 mM Tris-HCl, pH=7.4
# [10] = charge ratio (taurocholate/precipitant) 2, in 50 mM Tris-HCl, pH=7.4
# [11] = charge ratio (taurocholate/precipitant) 5, in PBS
# [12] = charge ratio (taurocholate/precipitant) 1.4 ± 0.6, PBS
# [13] = charge ratio (taurocholate/precipitant) 0.3, in 10 mM Arg and 10 mM Lys
# [14] = charge ratio (taurocholate/precipitant) 0.3 ± 0.1, PBS
# [15] = charge ratio (taurocholate/precipitant) 0.6, in 10 mM Arg and 10 mM Lys
# [16] = charge ratio (taurocholate/precipitant) 1.2 ± 0.5, PBS
molecule,measurement,setting,value
"NCCCCCCN [1,6 Hexanediamine]",Precipitation (%),[1],0%
same,Turbidity (OD 500 nm),[1],0 OD 500 nm
same,Precipitation (%),[2],0%
same,Turbidity (OD 500 nm),[2],0 OD 500 nm
"NCCCCCCCCCCN [1,10 Diaminodecane]",Precipitation (%),[3],0%
same,Turbidity (OD 500 nm),[3],0 OD 500 nm
same,Precipitation (%),[4],0%
same,Turbidity (OD 500 nm),[4],0 OD 500 nm
same,Precipitation (%),[5],0%
same,Turbidity (OD 500 nm),[5],0 OD 500 nm
"NCCCCCCCCCCCCN [1,12 Diaminododecane]",Precipitation (%),"charge ratio (taurocholate/precipitant) 0.125, PBS",100%
same,Turbidity (OD 500 nm),"charge ratio (taurocholate/precipitant) 0.125, PBS, maximal turbidity observed",0.4 ± 0.05 (max) OD 500 nm
same,Precipitation (%),[3],65 ± 5%
same,Turbidity (OD 500 nm),[3],0.02 ± 0.01 OD 500 nm
same,Precipitation (%),[4],17 ± 4%
same,Turbidity (OD 500 nm),[4],0.01 ± 0.005 OD 500 nm
same,Precipitation (%),[6],13 ± 4%
same,Turbidity (OD 500 nm),[6],0.01 ± 0.005 OD 500 nm
N=C(N)NCCC[C@H](N)C(=O)O [Arginine],Precipitation (%),[7],0%
same,Turbidity (OD 500 nm),[7],0 OD 500 nm
same,Precipitation (%),[4],0%
same,Turbidity (OD 500 nm),[4],0 OD 500 nm
NCCCC[C@H](N)C(=O)O [Lysine],Precipitation (%),[7],0%
same,Turbidity (OD 500 nm),[7],0 OD 500 nm
same,Precipitation (%),[4],0%
same,Turbidity (OD 500 nm),[4],0 OD 500 nm
Ca^2+,Precipitation (%),"charge ratio (taurocholate/precipitant) 0.2, in 50 mM Tris-HCl, pH=7.4",0%
same,Turbidity (OD 500 nm),"charge ratio (taurocholate/precipitant) 0.2, in 50 mM Tris-HCl, pH=7.4, maximal turbidity observed",0.23 ± 0.06 (max) OD 500 nm
same,Precipitation (%),[8],100%
same,Turbidity (OD 500 nm),"charge ratio (taurocholate/precipitant) 0.2, in PBS, maximal turbidity observed",0.25 ± 0.05 (max) OD 500 nm
same,Precipitation (%),[9],0%
same,Turbidity (OD 500 nm),[9],0.12 ± 0.03 OD 500 nm
same,Precipitation (%),[10],0%
same,Turbidity (OD 500 nm),[10],0.13 ± 0.03 OD 500 nm
Mg^2+,Precipitation (%),[8],0%
same,Turbidity (OD 500 nm),[8],0 OD 500 nm
same,Precipitation (%),[11],0%
same,Turbidity (OD 500 nm),[11],0 OD 500 nm
Polylysine [Polylysine Mr = 2300],precipitation,"Figure 3, equivalence point: poly K = 0.056 mM",100%
same,Precipitation (%),"charge ratio (taurocholate/precipitant) 0.5 ± 0.1, PBS",100%
same,Turbidity (OD 500 nm),"charge ratio (taurocholate/precipitant) 0.5 ± 0.1, PBS, maximal turbidity observed",0.9 ± 0.1 (max) OD 500 nm
same,Precipitation (%),[12],100%
same,Turbidity (OD 500 nm),[12],0.6 ± 0.2 OD 500 nm
Polylysine [Polylysine Mr = 21600],precipitation,"Figure 2, equivalence point: poly K = 0.0061 mM",100%
same,Precipitation (%),[13],100%
same,Turbidity (OD 500 nm),[13],1.6 ± 0.2 OD 500 nm
same,Precipitation (%),[14],100%
same,Turbidity (OD 500 nm),[14],0.4 ± 0.03 OD 500 nm
same,Precipitation (%),[15],100%
same,Turbidity (OD 500 nm),[15],1.3 ± 0.1 OD 500 nm
same,Precipitation (%),[16],100%
same,Turbidity (OD 500 nm),[16],0.13 ± 0.05 OD 500 nm
